{"source": "patent US9034854B2", "about": "“Pharmaceutical composition comprising estetrol derivatives for use in cancer therapy” (priority 2002, dated 2015)", "key": {"[1]": {"tested_on": "AP-1 site in the presence of ERβ", "conditions": "cited from earlier work"}, "[2]": {"tested_on": "AP-1 site in the presence of ERα", "conditions": "cited from earlier work"}, "[3]": {"tested_on": "DMBA-induced mammary tumours", "test": "Second DMBA trial in rats, dose-response prevention study (Example 4)", "format": "in vivo, rat", "conditions": "8 weeks", "description": "Estetrol and tamoxifen were subsequently tested in a second DMBA trial in rats to evaluate the dose-response relationships in preventing rats from developing mammary tumours. The experimental procedure as set forth in example 3 was used as a prevention study to treat the animals (12 animals per group) for 8 consecutive weeks after tumour induction with oral dosages of either estetrol or tamoxifen. DMBA-exposed rats were randomly assigned to treatment groups, receiving oral treatment as follows: • Group 1 animals received placebo oral treatment in the form of a single daily dose of 3.0 ml/kg vehicle (20% wt/vol solution of hydroxypropyl-beta-cyclodextrin in water); • Group 2 animals received tamoxifen orally at a single daily dose of 1 mg/kg; • Group 3 animals received tamoxifen orally at a single daily dose of 2 mg/kg; • Group 4 animals received tamoxifen orally at a single daily dose of 3 mg/kg; • Group 5 animals received estetrol orally at a single daily dose of 0.5 mg/kg; • Group 6 animals received estetrol orally at a single daily dose of 1.0 mg/kg; • Group 7 animals received estetrol orally at a single daily dose of 1.5 mg/kg; • Group 8 animals received estetrol orally at a single daily dose of 2.0 mg/kg; • Group 9 animals received estetrol orally at a single daily dose of 2.5 mg/kg; and • Group 10 animals received estetrol orally at a single daily dose of 3.0 mg/kg\nDuring the treatment period of 8 weeks, the emergence of palpable tumours and number of tumours were determined weekly. The number of mammary tumours at necropsy is depicted in FIG. 2."}, "[4]": {"tested_on": "DMBA-induced mammary tumours", "test": "DMBA-induced tumour model in rats, prevention (Example 3)", "format": "in vivo, rat", "conditions": "8 weeks"}, "[5]": {"test": "Single rising oral dose study in healthy postmenopausal volunteers", "format": "in vivo, human", "experimental": "To determine the bioavailability and elimination half-life of estetrol after oral dosing in humans a single rising dosing study was performed in healthy postmenopausal volunteers. Volunteers (n=6) were randomly assigned to 0.1, 1 or 10 mg estetrol and blood samples (18 per volunteer) were obtained over a period of 72 hours. After thawing the plasma samples, liquid-liquid extraction (hexane and diethyl ether) was employed to prepare the estetrol-containing plasma samples for HPLC analysis (Perkin is Elmer 200) and tandem mass spectrometry using a PE Sciex 4000 tandem mass spectrometer and APCI interface. With each sample batch, a calibration curve with 6 calibrators was recorded."}, "[6]": {"tested_on": "pre-existing DMBA-induced mammary tumours", "test": "DMBA-induced tumour model in rats, therapeutic design, pre-existing tumours (Example 5)", "format": "in vivo, rat", "experimental": "As set forth in example 3, female Sprague-Dawley rats were given 16 mg DMBA at the age of 50 days. Mammary tumour development was allowed to proceed until week 8 after DMBA treatment. Animals were subsequently allocated to one of six groups, receiving 4 weeks daily oral treatment with placebo, tamoxifen or estetrol as follows: • Group 1 animals received placebo treatment with a single daily dose of 3.0 ml/kg vehicle (20% wt/vol solution of hydroxypropyl-beta-cyclodextrin in water); • Group 2 animals were surgically castrated and received placebo treatment with 3.0 ml/kg/day vehicle; • Group 3 animals received tamoxifen at a dose of 1 mg/kg; • Group 4 animals received estetrol at a dose of 1.0 mg/kg; • Group 5 animals received estetrol at a dose of 3.0 mg/kg; • Group 6 animals received estetrol at a dose of 10.0 mg/kg. […] During therapy, the progression or disappearance of palpable mammary tumours and the size of the tumours were determined weekly. At necropsy, tumours were counted, measured and the change from baseline at the start of treatment was calculated."}, "[7]": {"tested_on": "cultured endothelial cells of human umbilical cord veins", "conditions": "cited from earlier work"}, "[8]": {"test": "Previous studies: agonistic models of bone resorption, hot flushing and vaginal cornification", "format": "in vivo", "conditions": "vaginal cornification", "description": "Eighty-four female Sprague-Dawley rats (Harlan, The Netherlands) were group housed, maintained in a 12-hr light/dark environment, and fed a Soya Free Diet (SDS England) and water ad libitum. Animals were weighed on a weekly basis."}, "human ERβ": {"biological_target": "human ERβ (Homo sapiens (Human), UniProt Q92731)", "sequence (Q92731 whole entry)": "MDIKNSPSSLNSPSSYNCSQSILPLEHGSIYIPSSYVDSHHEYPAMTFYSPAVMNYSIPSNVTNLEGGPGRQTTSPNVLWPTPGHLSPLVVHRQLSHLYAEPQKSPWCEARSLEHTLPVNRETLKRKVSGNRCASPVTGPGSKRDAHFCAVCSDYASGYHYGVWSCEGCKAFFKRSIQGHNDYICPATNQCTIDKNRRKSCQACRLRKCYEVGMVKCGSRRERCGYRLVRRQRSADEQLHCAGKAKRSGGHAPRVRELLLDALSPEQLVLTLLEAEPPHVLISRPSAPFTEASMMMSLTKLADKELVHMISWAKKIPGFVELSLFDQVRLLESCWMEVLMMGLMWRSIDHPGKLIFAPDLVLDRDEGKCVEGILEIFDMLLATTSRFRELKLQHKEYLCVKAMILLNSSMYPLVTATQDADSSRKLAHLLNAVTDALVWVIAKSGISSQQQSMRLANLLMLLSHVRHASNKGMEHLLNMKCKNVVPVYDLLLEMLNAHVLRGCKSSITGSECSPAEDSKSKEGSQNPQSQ", "test": "Competitive steroid binding assay, ERβ"}, "human ERα": {"biological_target": "human ERα (Homo sapiens (Human), UniProt P03372)", "sequence (P03372 whole entry)": "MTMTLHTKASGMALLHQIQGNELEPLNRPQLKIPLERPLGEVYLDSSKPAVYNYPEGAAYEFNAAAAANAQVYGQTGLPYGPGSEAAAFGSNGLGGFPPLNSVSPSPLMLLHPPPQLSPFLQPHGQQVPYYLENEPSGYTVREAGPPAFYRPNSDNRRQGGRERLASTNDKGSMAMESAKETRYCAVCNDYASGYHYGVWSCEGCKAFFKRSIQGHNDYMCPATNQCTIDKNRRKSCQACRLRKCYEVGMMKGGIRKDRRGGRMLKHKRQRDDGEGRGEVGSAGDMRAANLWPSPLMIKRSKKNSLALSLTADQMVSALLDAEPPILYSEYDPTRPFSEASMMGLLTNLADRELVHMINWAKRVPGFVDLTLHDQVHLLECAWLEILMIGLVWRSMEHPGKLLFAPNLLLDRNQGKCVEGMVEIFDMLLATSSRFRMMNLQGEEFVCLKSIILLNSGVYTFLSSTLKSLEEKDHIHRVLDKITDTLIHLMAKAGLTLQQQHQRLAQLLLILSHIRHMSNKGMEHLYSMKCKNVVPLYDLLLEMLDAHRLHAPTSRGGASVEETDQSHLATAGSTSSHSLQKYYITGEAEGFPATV", "test": "Competitive steroid binding assay, ERα"}}, "data": [{"smiles": "C[C@]12CC[C@@H]3c4ccc(O)cc4CC[C@H]3[C@@H]1CC[C@@H]2O", "note": "[E2, 17β-estradiol]", "values": [{"measurement": "Effect on AP-1 site", "setting": "[1]", "result": "inhibits"}, {"measurement": "Effect on AP-1 site", "setting": "[2]", "result": "activates"}]}, {"smiles": "C[C@]12CC[C@@H]3c4ccc(O)cc4CC[C@H]3[C@@H]1[C@@H](O)[C@@H](O)[C@@H]2O", "note": "[E4, 1,3,5 (10)-estratrien-3,15α,16α,17β-tetrol]", "values": [{"measurement": "Mammary tumour formation", "setting": "[3]; estetrol 0.5-3.0 mg/kg/day orally", "result": "dose-dependent inhibition of mammary tumour formation"}, {"measurement": "Protection from developing tumours", "setting": "[3]; estetrol 2.5 and 3.0 mg/kg/day orally", "result": "completely protected rats from developing tumours"}, {"measurement": "Efficacy in preventing growth of DMBA-induced tumours relative to tamoxifen", "setting": "[4]; E4 […] vs tamoxifen 3 mg/kg/day orally", "result": "as effective as tamoxifen"}, {"measurement": "half-life", "setting": "[5]; female, human, plasma, po, oral dosing, human postmenopausal subjects, read-out: Elimination half-life", "result": "> 20", "unit": "h"}, {"measurement": "AUC values, dose-linearity", "setting": "[5]; oral 0.1, 1, 10 mg, plasma", "result": "good dose-linearity"}, {"measurement": "Tolerability", "setting": "[5]; oral dose increased from 0.1 to 1 and 10 mg, postmenopausal volunteers", "result": "Good tolerability"}, {"measurement": "Oral absorption", "setting": "[5]; over the entire dose range 0.1-10 mg oral", "result": "well absorbed"}, {"measurement": "Tumour number at necropsy", "setting": "[6]; estetrol 1 mg/kg/day orally 4 weeks, n=9, 16 at start of treatment", "result": 23}, {"measurement": "Tumour number at necropsy", "setting": "[6]; estetrol 3 mg/kg/day orally 4 weeks, n=9, 16 at start of treatment", "result": 15}, {"measurement": "Tumour number at necropsy", "setting": "[6]; estetrol 10 mg/kg/day orally 4 weeks, n=10, 18 at start of treatment", "result": 7}, {"measurement": "Tumour size, percentage change from baseline, net group effect", "setting": "[6]; estetrol 1, 3, 10 mg/kg/day orally 4 weeks", "result": "dose dependent pronounced tumour size reduction"}, {"measurement": "Efficacy, net disappearance of mammary tumours", "setting": "[6]; estetrol orally 4 weeks, started 8 weeks after DMBA", "result": "comparable to ovariectomy"}, {"measurement": "Effect on proliferation of vascular endothelial cells", "setting": "[7]", "result": "No significant effect"}, {"measurement": "In vivo estrogenicity, relative potency", "setting": "[8]; 0.125 mg/kg/day EE vs […] E4, hot flushing", "result": "equipotency"}, {"measurement": "In vivo estrogenicity, relative potency", "setting": "[8]; […] EE vs 0.5 mg/kg/day E4, hot flushing", "result": "equipotency"}, {"measurement": "Ki", "setting": "human ERβ", "result": 19, "unit": "nM"}, {"measurement": "Ki", "setting": "human ERα", "result": 4.9, "unit": "nM"}, {"measurement": "Relative ERα/ERβ preference", "setting": "human ERα; preference for binding to ERα protein versus ERβ protein", "result": 400, "unit": "%"}]}, {"smiles": "C[C@]12CC[C@@H]3c4ccc(O)cc4C[C@@H](CCCCCCCCC[S+]([O-])CCCC(F)(F)C(F)(F)F)[C@H]3[C@@H]1CC[C@@H]2O", "note": "(stereo partly shown) [ICI-182,780]", "values": [{"measurement": "Effect on AP-1 site", "setting": "[1]", "result": "stimulate"}, {"measurement": "Effect on AP-1 site", "setting": "[2]", "result": "inhibit"}]}, {"smiles": "O=C(c1ccc(OCCN2CCCCC2)cc1)c1c(-c2ccc(O)cc2)sc2cc(O)ccc12", "note": "[raloxifene]", "values": [{"measurement": "Effect on AP-1 site", "setting": "[1]", "result": "stimulate"}, {"measurement": "Effect on AP-1 site", "setting": "[2]", "result": "inhibit"}]}, {"smiles": "CC/C(=C(\\c1ccccc1)c1ccc(OCCN(C)C)cc1)c1ccccc1", "note": "[tamoxifen, reference compound]", "values": [{"measurement": "Palpable tumours developed", "setting": "[3]; tamoxifen 1, 2 and 3 mg/kg/day orally", "result": "In none of the tamoxifen groups (1, 2, and 3 mg/kg/day) palpable tumours developed"}, {"measurement": "Development of mammary tumours", "setting": "[4]; tamoxifen 3 mg/kg/day orally", "result": "inhibiting the development of mammary tumours"}, {"measurement": "Effect on AP-1 site", "setting": "[1]", "result": "stimulate"}, {"measurement": "Tumour size, percentage change from baseline, net group effect", "setting": "[6]; tamoxifen 1 mg/kg/day orally 4 weeks", "result": "increase in tumour size as net group effect"}, {"measurement": "Efficacy against further development and progression of mammary tumours", "setting": "[6]; tamoxifen 1 mg/kg/day orally 4 weeks, started 8 weeks after DMBA", "result": "ineffective"}, {"measurement": "Tumour number at necropsy", "setting": "[6]; tamoxifen 1 mg/kg/day orally 4 weeks, n=8, 15 at start of treatment", "result": 19}, {"measurement": "Effect on AP-1 site", "setting": "[2]", "result": "inhibit"}]}]}
